Source: paper PMC4076014 (ACS chemical biology, 2014)
Where two headings read alike, the source gives them in different places.

What was measured:
[1] = target: T1, INPP5A (Homo sapiens, UniProt Q14642); experiment: Malachite green assay with IP3 substrate, dose response; assay type: biochemical
T1 sequence (Q14642 1-402): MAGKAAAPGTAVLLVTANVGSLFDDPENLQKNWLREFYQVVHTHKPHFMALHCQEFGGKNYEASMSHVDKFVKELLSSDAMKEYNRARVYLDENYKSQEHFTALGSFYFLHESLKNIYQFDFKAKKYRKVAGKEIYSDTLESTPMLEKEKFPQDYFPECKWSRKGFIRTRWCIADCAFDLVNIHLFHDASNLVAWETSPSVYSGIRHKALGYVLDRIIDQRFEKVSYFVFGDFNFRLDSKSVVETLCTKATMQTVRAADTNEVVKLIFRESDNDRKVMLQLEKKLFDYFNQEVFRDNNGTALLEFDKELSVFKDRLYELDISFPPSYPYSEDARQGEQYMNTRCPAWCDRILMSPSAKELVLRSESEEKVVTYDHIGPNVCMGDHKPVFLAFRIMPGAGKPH

[2] = target: catalytic domain of human INPP5B (Homo sapiens, UniProt P32019); experiment: Isothermal titration calorimetry; assay type: binding
[3] = target: T2, SHIP1 (Mus musculus, UniProt Q9ES52); experiment: Fluorescence polarization; assay type: biochemical
T2 sequence (Q9ES52 1-1191): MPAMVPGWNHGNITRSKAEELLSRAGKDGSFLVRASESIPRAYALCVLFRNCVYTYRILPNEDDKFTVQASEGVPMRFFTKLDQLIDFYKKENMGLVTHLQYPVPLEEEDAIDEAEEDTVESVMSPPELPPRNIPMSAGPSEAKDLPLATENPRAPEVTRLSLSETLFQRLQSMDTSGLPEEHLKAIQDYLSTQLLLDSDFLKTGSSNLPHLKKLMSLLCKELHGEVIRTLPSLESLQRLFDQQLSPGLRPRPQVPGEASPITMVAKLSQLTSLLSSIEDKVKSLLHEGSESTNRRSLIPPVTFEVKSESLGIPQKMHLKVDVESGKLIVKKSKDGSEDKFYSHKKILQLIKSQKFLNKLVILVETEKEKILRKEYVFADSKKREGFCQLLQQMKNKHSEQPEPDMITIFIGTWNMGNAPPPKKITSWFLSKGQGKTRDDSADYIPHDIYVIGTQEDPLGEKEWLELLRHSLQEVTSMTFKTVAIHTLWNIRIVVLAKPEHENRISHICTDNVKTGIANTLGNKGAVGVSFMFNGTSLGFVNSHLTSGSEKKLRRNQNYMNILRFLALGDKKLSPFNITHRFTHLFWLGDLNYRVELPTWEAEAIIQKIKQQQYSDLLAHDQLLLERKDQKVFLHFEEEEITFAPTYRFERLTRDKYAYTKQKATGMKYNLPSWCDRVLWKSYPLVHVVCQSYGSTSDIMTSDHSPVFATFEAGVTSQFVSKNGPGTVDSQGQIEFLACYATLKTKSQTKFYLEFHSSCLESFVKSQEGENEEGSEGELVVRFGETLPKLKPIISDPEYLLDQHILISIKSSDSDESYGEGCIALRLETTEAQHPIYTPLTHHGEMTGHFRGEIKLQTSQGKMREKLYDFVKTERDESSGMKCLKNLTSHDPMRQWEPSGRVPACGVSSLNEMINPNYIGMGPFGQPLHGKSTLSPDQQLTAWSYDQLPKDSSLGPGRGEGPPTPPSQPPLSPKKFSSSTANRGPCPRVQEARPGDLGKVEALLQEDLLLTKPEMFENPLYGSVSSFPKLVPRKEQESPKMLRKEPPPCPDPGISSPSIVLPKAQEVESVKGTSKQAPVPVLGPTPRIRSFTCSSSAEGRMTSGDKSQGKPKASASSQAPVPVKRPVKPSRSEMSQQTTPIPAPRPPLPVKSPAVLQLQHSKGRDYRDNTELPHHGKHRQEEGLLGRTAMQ

[4] = target: T3, INPP5E (Homo sapiens, UniProt Q9NRR6); experiment: Fluorescence polarization; assay type: biochemical
T3 sequence (Q9NRR6 294-598 limits assumed): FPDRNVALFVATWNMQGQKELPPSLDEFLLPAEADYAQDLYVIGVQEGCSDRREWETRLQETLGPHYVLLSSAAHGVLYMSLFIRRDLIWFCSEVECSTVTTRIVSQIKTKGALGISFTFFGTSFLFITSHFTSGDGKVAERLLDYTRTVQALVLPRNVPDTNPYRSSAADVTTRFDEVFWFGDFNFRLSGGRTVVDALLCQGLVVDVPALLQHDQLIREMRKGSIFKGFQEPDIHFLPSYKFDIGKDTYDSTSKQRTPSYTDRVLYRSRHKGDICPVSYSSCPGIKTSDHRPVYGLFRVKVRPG

[5] = target: Synaptojanin 1 (SJ1) (Homo sapiens, UniProt O43426); experiment: Fluorescence polarization; assay type: biochemical
[6] = test system: cell cultures; settings: preliminary experiments / data not shown
[7] = target: INPP5B catalytic domain (Homo sapiens, UniProt P32019); experiment: Malachite green assay with IP3 substrate, dose response; assay type: biochemical
[8] = test system: human dermal fibroblasts; experiment: Cellular inositol lipid levels, 3H-myo-inositol labeling and HPLC; assay type: cell-based; settings: 50 μM, 1 hour treatment
[9] = target: T4, INPP5B (Homo sapiens, UniProt P32019); experiment: biochemical
[10] = test system: 5-phosphatase domain of human OCRL in COS-7 cells; experiment: Optogenetic in situ phosphatase assay; assay type: cell-based; settings: 50 μM, COS-7, n=14 cells, P<0.001 vs DMSO control
[11] = target: T4, INPP5B; experiment: biochemical; remark: listed apart in the source

Row | IC50 [1] | Heat of binding to INPP5B catalytic domain (ITC, in words) ([2]; protein precipitation during the experiment, results inconclusive, data not shown) | IC50 [3] | IC50 [4] | IC50 [5] | IC50 [7] | N (stoichiometry, ITC) ([2]; 25°C) | ΔH (ITC) ([2]; 25°C) | ΔS (ITC) ([2]; 25°C) | Ka (association constant, ITC) ([2]; 25°C, 500 µM compound into 33 µM INPP5B catalytic domain, 5% DMSO) | IC50 [9] | IC50 [11] | Structure (SMILES) | Toxicity on cell cultures [6] | All other phosphoinositide levels measured [8] | Loss (drop) of plasma membrane iRFP-PH-PLCδ1 fluorescence [10]
1 | 1070 nM | measurable heat of binding | 2520 nM | 2330 nM | 3630 nM | 570 nM | – | – | – | – | – | – | CCOc1cc(CN)cc(Br)c1OCC [YU144369] | acute toxicity | – | –
2 | 1440 nM | – | 2890 nM | 2800 nM | > 70000 nM | 810 nM | – | – | – | – | – | – | CC(C)Oc1c(Cl)cc(CN)cc1Cl [YU144530] | – | – | –
3 | – | – | – | > 70000 nM | – | 530 nM | 0.9108 ± 0.0547 | −7270 ± 588.6 | 0.5933 | 2.352×10^5 ± 8.744×10^4 | 17500 nM | – | c1cc(-c2nnc3scnn23)ccn1 [YU142670] | – | remained unchanged | 32±3%
4 | – | – | – | – | – | 920 nM | – | – | – | – | – | 2630 nM | COc1cc(-c2nnc3sc(-c4cccs4)nn23)cc(OC)c1OC [YU142717] | – | – | –
5 | 1810 nM | – | 8970 nM | 5770 nM | 1300 nM | 1100 nM | – | – | – | – | – | – | COc1cc(CN)c(Br)cc1OCc1ccccc1Cl [YU144118] | – | – | –
